# Activity calls are given as the source filed them.
# What was measured:
# Fatty acid synthase [1] = biological target: T1, Fatty acid synthase (Homo sapiens, UniProt P49327); test: FAS thioesterase domain inhibitors, dose response, biochemical, kinetic fluorescence intensity (AID 624326); type: functional;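 note: rate of fluorescence rise from hydrolysis of a fluorogenic O-methyl fluorescein ester substrate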
# Beta Lactamase = Beta Lactamase (Pseudomonas aeruginosa, UniProt Q932Y6); test: beta-lactamase reporter inhibitor potency, dose response, artefact control for NOD2-RIPK2 interaction inhibitor project, BLA reporter cells, FRET fluorescence (AID 651552); type: functional, cell-based
# Fatty acid synthase [2] = biological target: T1, Fatty acid synthase; test: FAS thioesterase domain inhibitors, dose response, biochemical, endpoint fluorescence intensity, uHTS hits (AID 624327); type: functional;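 note: fluorescence from hydrolysis of an O-methyl fluorescein acyl ester substrate by the enzyme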
# [3] = Fluorescence-based cell-based high throughput dose response assay for inhibitors of the interaction of nucleotide-binding oligomerization domain containing 2 (NOD2) and the receptor-interacting serine-threonine kinase 2 (RIPK2).; type: functional; conditions: Homo sapiens
# [4] = biological target: 26S proteasome non-ATPase regulatory subunit 14 (Homo sapiens, UniProt O00487); test: inhibition of proteasome subunit RPN11 – biochemical, fluorescence polarization, uHTS hits, confirmation (AID 602368); type: functional
# Prothrombin = Prothrombin (Bos taurus, UniProt P00735); test: thrombin inhibition, dose response, biochemical, fluorescence polarization, uHTS hits (AID 602369); type: functional
# [5] = biological target: 72 kDa type IV collagenase (Homo sapiens, UniProt P08253); test: Dose Response validation of uHTS RPN11 inhibitor hits using a MMP-2 Fluorescence assay.; type: functional
# Steroidogenic factor 1 = Steroidogenic factor 1 (Homo sapiens, UniProt Q13285); test: Counterscreen for inverse agonists of the liver receptor homolog-1 (LRH-1; NR5A2): Luminescence-based cell-based high throughput dose response assay to identify inverse agonists of the Steroidogenic Factor 1 Nuclear Receptor (SF1; NR5A1).; type: functional
# [6] = StAR promoter reporter inhibition counter-screen, dose response, counter-screen for LRH-1 inverse agonist project, cell-based, luminescence, luciferase reporter (AID 651969); type: functional
# [7] = biological target: Nuclear receptor subfamily 5 group A member 2 (Homo sapiens, UniProt O00482); type: functional, cell-based;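 note: HEK293T cells transfected with LRH-1 and a StAR promoter luciferase reporter; potency for inhibitors that lower LRH-1 driven reporter light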
# H4 = test: Luminescence Cell-Based Dose Response HTS to Identify Activators of 5'UTR Stem-Loop Driven Prion Protein mRNA Translation in H4 Neuroglioblastoma Cells. [Related pubchem assays: 1829 (Project Summary), 1814 (Primary HTS)]; type: functional; conditions: Homo sapiens
# HeLa = test: HeLa cell cytotoxicity, dose response, cytotoxicity control for MITF activator project, CellTiter-Glo luminescence, cherry-pick samples (AID 540259); type: functional, cell-based; conditions: Homo sapiens
# [8] = Luminescence Cell-Based Dose Response HTS to Identify Activators of Luciferase Translation or Activity in H4 […] Cells. [Related pubchem assays: 1829 (Project Summary), 1814 (Primary HTS)]; type: functional
# [9] = biological target: G-protein coupled receptor 55 (Homo sapiens, UniProt Q9Y2T6); test: GPR55 agonists via beta-arrestin recruitment, primary screen, imaging, U2OS cells, beta-arrestin-GFP redistribution (AID 1961); type: functional
# [10] = Luminescence Cell-Based Dose Confirmation HTS to Identify Activators of 5'UTR Stem-Loop Driven Alpha-Synuclein mRNA Translation in H4 Neuroglioblastoma Cells. [Related pubchem assays: 1829 (Project Summary), 1814 (Primary HTS)]; type: functional
# [11] = C. albicans growth with fluconazole, confirmation, fluorescence, retest (AID 2467); type: functional, cell-based
# [12] = NIH-3T3 fibroblast cytotoxicity, dose response, cytotoxicity control, cell-based, fluorescence, Alamar Blue, secondary assay (AID 2327); type: functional;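 note: NIH-3T3 mouse fibroblasts cultured with fluconazole at 8 µg/mL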
# [13] = biological target: Adenosylmethionine-8-amino-7-oxononanoate aminotransferase (Mycobacterium tuberculosis, UniProt P9WQ81); test: Mycobacterium tuberculosis BioA enzyme inhibitor Measured in Biochemical System Using Plate Reader - 2163-02_Inhibitor_Dose_CherryPick_Activity.; type: functional, Mycobacterium tuberculosis UT205
# [14] = biological target: T2, Probable nicotinate-nucleotide adenylyltransferase (Staphylococcus aureus (strain N315), UniProt P65502); type: functional, Staphylococcus aureus subsp. aureus N315; conditions: read-out: IC50_Mean;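 for IC50 Mean: confirmatory dose-response retesting of NadD inhibitor hits first found in an ultra-high-throughput screen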
# [15] = biological target: T2, Probable nicotinate-nucleotide adenylyltransferase; type: functional, Staphylococcus aureus subsp. aureus N315
# Beta-lactamase [16] = biological target: T3, Beta-lactamase (Pseudomonas aeruginosa, UniProt Q79MP6); test: […] counterscreen for selective VIM-2 inhibitors: dose response biochemical high throughput screening assay to identify inhibitors of IMP-1 metallo-beta-lactamase.
# Beta-lactamase [17] = biological target: Beta-lactamase (Salmonella choleraesuis (strain SC-B67), UniProt Q5J463); test: Epi-absorbance-based counterscreen for selective VIM-2 inhibitors: dose response biochemical high throughput screening assay to identify inhibitors of TEM-1 serine-beta-lactamase.
# Beta-lactamase [18] = biological target: T3, Beta-lactamase; test: IMP-1 metallo-beta-lactamase inhibitors, dose response, selectivity assay for VIM-2 inhibitor project, biochemical, epi-absorbance (AID 1920)
# [19] = Counterscreen for activators of the function of SWI/SNF related, matrix associated, actin dependent regulator of chromatin, subfamily a, member 2 (SMARCA2, BRM): Luminescence-based cell-based high throughput dose response assay to identify non-selective compounds using the VP16 reporter assay.; type: functional
# [20] = biological target: Glucose-6-phosphate 1-dehydrogenase (Homo sapiens, UniProt P11413); test: human G6PD enzyme inhibitors, dose response, selectivity assay for P. falciparum G6PD inhibitor project, biochemical, fluorescence (AID 504792); type: functional
# Hexokinase = biological target: T4, Hexokinase (Trypanosoma brucei, UniProt Q38C41); test: Confirmation assay for inhibitors of Trypanosoma brucei hexokinase 1-Analogue-first series. [Related pubchem assays (depositor defined):AID1430, AID1632, AID2516, AID2560, AID2579, AID2600, AID449725, AID492951]; type: functional
# T4 sequence (Q38C41 whole entry): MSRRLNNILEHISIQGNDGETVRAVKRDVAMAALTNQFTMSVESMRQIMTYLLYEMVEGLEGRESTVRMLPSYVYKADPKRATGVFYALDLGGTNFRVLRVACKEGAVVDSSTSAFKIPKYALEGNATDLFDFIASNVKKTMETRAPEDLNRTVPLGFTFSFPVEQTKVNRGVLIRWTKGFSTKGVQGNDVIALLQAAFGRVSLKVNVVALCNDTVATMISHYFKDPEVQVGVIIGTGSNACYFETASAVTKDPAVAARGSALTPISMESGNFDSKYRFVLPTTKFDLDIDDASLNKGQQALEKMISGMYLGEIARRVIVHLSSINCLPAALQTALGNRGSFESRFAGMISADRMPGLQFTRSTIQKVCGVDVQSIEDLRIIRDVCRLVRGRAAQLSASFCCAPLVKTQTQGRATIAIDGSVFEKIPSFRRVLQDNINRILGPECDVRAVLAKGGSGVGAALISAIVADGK
# [21] = biological target: SWI/SNF-related matrix-associated actin-dependent regulator of chromatin subfamily A member 2 (Homo sapiens, UniProt P51531); test: Luminescence-based cell-based high throughput dose response assay to identify activators of the function of SWI/SNF related, matrix associated, actin dependent regulator of chromatin, subfamily a, member 2 (SMARCA2, BRM).; type: functional
# [22] = biological target: T5, Rac GTPase-activating protein 1 (Homo sapiens, UniProt Q9H0H5); test: MgcRacGAP GTPase-activating activity inhibitors, confirmation, biochemical, ADP Hunter fluorescence, primary and confirmatory (AID 624330); type: functional
# T5 sequence (Q9H0H5 whole entry): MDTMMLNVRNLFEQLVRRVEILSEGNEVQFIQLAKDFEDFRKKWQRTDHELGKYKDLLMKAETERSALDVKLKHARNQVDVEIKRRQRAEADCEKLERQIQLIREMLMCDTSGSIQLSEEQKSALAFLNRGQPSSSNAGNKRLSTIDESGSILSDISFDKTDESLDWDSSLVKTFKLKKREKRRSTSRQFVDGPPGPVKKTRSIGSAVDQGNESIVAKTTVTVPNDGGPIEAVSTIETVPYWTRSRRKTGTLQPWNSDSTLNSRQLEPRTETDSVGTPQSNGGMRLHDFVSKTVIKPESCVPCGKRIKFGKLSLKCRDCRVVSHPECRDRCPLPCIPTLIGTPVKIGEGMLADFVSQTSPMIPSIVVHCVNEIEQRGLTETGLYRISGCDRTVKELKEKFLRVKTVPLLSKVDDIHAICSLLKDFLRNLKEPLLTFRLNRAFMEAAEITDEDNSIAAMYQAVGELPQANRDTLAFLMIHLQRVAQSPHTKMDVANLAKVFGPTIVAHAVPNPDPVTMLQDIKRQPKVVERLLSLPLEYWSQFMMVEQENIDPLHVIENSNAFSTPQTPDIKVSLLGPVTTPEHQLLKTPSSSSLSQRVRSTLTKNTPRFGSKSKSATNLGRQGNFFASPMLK
# [23] = HeLa cell cytotoxicity, dose response, cytotoxicity control for MgcRacGAP inhibitor project (AID 624300); type: functional
# T1 sequence (P49327 whole entry, the tested form may be a part): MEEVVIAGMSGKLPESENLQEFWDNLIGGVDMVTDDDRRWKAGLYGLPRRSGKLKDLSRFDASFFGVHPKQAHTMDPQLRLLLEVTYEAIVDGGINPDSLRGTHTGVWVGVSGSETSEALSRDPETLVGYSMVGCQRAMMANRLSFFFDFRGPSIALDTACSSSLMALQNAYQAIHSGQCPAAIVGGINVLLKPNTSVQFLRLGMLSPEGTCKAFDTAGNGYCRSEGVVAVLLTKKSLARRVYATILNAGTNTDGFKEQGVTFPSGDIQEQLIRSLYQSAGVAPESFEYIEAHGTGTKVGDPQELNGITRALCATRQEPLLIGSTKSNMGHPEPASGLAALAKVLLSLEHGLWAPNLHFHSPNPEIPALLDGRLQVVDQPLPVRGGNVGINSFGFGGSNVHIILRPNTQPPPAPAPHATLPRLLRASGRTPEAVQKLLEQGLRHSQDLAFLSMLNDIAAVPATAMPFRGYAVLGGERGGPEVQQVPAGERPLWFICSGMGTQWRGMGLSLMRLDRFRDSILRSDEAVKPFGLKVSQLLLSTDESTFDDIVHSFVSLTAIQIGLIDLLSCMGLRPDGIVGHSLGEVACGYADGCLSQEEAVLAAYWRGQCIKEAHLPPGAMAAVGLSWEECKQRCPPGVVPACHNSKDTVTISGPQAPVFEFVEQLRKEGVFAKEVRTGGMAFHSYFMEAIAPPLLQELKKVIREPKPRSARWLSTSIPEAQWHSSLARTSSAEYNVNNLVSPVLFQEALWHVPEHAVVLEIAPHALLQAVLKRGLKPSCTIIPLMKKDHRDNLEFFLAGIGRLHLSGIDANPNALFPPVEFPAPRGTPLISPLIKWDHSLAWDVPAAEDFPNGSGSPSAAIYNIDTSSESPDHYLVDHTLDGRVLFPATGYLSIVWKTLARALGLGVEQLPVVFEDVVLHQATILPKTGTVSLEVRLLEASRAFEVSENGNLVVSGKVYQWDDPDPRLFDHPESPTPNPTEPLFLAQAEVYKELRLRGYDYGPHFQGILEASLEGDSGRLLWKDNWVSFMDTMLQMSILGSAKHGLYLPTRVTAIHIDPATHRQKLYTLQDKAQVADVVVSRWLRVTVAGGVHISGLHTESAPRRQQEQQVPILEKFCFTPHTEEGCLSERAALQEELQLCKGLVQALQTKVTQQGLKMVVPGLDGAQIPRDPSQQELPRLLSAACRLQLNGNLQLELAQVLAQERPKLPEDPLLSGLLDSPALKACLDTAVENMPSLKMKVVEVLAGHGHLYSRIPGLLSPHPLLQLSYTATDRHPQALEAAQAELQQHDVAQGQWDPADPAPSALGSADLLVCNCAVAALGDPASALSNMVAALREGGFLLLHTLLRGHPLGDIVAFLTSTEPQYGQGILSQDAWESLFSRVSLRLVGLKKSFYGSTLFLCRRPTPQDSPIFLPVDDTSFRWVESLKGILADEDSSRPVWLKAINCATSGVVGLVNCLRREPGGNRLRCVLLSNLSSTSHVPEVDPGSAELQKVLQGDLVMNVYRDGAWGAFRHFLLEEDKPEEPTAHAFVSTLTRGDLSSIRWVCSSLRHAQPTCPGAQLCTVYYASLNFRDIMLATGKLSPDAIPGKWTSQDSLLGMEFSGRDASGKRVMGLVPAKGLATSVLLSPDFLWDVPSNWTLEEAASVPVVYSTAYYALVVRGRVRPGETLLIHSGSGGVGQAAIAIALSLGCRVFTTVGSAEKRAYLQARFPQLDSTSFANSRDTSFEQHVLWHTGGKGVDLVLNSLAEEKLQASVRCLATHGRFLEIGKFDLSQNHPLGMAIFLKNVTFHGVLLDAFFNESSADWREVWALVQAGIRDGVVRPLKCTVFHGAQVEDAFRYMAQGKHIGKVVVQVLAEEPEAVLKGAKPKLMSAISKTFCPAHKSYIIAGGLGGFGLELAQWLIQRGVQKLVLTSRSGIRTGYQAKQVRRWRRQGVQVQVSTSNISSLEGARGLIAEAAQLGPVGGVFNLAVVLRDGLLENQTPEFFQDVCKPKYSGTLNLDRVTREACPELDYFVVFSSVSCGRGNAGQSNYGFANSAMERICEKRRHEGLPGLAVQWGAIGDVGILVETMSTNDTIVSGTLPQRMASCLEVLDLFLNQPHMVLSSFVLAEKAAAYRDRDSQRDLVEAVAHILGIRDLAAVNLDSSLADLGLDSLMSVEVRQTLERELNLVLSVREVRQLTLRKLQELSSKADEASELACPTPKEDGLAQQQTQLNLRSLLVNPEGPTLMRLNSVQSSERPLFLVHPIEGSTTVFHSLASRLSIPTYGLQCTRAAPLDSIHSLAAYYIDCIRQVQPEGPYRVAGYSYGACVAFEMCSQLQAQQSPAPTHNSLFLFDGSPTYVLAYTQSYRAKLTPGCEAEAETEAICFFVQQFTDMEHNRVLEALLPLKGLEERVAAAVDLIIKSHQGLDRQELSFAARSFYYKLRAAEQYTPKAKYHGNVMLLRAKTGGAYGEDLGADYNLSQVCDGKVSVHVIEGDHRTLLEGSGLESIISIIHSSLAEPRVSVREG
# T3 sequence (Q79MP6 whole entry): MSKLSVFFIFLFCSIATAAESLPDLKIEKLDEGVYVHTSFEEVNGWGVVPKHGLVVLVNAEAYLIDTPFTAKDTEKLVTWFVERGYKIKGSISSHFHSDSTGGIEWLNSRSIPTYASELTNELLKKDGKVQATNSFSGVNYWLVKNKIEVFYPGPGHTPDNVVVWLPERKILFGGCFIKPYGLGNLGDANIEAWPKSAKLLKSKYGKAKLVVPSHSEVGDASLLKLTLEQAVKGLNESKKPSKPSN
# T2 sequence (P65502 whole entry): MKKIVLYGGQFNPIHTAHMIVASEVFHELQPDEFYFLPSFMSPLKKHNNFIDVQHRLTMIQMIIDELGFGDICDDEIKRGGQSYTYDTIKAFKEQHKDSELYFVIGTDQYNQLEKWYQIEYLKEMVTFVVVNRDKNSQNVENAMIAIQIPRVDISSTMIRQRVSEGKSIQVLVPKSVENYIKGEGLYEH
# Sequence of Beta Lactamase (Q932Y6 whole entry, the tested form may be a part): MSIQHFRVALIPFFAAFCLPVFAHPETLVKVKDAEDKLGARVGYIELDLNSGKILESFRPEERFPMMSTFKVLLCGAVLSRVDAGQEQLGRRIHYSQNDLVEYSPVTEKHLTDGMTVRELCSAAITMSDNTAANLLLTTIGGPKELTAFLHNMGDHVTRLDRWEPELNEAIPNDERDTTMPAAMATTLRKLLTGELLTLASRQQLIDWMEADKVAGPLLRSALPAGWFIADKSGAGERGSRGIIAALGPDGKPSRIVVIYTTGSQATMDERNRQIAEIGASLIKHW
# Sequence of Adenosylmethionine-8-amino-7-oxononanoate aminotransferase (P9WQ81 whole entry): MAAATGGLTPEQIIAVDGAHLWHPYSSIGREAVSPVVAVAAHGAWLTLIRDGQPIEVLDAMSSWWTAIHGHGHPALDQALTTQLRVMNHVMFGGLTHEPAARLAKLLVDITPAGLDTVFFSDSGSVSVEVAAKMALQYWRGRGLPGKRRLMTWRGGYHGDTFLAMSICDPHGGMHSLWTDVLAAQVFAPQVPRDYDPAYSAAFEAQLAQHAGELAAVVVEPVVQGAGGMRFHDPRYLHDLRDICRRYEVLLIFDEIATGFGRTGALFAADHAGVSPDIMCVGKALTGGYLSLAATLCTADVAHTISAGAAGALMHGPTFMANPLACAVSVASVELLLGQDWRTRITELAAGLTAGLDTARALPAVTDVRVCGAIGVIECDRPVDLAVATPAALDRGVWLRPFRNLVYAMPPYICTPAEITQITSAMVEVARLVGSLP
# Sequence of Nuclear receptor subfamily 5 group A member 2 (O00482 whole entry): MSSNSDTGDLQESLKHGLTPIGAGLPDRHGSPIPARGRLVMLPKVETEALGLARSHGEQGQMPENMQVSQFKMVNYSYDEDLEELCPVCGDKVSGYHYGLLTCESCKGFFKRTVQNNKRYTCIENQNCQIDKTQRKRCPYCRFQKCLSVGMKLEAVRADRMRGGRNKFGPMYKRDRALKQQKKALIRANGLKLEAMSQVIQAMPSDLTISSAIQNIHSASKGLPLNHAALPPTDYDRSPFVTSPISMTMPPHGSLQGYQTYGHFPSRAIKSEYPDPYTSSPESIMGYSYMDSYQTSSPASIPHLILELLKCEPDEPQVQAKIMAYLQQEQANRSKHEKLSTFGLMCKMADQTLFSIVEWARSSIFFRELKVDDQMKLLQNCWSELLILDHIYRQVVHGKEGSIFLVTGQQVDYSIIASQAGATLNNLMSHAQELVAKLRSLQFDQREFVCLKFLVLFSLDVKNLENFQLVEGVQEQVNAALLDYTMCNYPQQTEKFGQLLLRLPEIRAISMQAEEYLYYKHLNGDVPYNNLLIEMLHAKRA
# Sequence of 26S proteasome non-ATPase regulatory subunit 14 (O00487 whole entry): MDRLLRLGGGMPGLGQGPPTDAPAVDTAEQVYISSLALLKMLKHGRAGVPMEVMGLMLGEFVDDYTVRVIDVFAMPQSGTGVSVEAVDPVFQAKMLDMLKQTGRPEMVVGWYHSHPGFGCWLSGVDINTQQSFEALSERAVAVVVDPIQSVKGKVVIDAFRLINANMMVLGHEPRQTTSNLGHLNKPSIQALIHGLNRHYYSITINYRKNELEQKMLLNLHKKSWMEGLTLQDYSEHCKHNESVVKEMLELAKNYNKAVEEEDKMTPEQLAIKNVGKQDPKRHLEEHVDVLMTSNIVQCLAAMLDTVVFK
# Sequence of Glucose-6-phosphate 1-dehydrogenase (P11413 whole entry): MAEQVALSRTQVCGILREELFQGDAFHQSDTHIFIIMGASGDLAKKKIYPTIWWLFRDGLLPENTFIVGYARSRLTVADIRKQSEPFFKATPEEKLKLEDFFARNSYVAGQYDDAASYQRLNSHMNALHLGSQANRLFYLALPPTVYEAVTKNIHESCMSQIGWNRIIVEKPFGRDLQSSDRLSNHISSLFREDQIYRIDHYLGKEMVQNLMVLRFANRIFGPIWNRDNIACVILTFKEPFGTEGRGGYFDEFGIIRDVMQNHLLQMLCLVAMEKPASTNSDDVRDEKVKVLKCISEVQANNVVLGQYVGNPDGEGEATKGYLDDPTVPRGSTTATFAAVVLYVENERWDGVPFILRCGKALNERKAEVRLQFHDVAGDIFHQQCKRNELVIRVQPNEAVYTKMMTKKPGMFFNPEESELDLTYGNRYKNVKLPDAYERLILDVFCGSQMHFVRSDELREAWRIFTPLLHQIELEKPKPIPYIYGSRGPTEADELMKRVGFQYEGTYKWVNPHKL
smiles,measurement,setting,value
CCOC(=O)[C@]12Cc3ccc(C)cc3[C@H]1N(C1CCCCC1)C(=O)c1cc(OC)ccc12,IC50,Fatty acid synthase [1],5.14 µM (active)
same,IC50,Beta Lactamase,19.1 µM (inactive)
same,IC50,Fatty acid synthase [2],5.7 µM (active)
same,IC50,[3],2.32 µM (active)
CN1C(=O)/C(=C\C=C2/CCCN2C)N(C)C1=S,IC50,[4],23.3 µM (active)
same,IC50,Prothrombin,42.7 µM (active)
same,IC50,[5],> 100 µM (inactive)
COc1ccc(OCCNC(=O)C2(C)CCN2Cc2ccc(SC)cc2)cc1 (configuration not stated),IC50,Steroidogenic factor 1,3.51 µM (active)
same,IC50,[6],35.9 µM (inactive)
same,IC50,[7],5.57 µM (active)
CC(C)C[C@@H](CSc1ccccc1)N1CCN(CC(C)C)CCC1=O,EC50,H4,> 120 µM (not active)
same,AC50,HeLa,147 µM (active)
same,EC50,[8],41.4 µM (active)
same,EC50,[9],14.1 µM (inactive)
same,EC50,[10],5.27 µM (active)
Cc1ccc(N2NC(C)(c3cccs3)N=C2S)cc1 (configuration not stated),EC50,[11],1.27 µM (active)
same,EC50,[12],7.74 µM (active)
same,AC50,HeLa,> 350 µM (inactive)
COc1ccc(C(=O)Nc2cccnc2)cc1OC,AC50,[13],8.29 µM (active)
CCc1cccc2c1NC(=O)C21N2CCCC2C(C(=O)c2ccc3ccccc3c2)C12C(=O)Nc1ccccc12 (configuration not stated),IC50,[14],35.7 µM (active)
same,IC50,[15],16.2 µM (active)
COc1cc2c(cc1OC)C(C)N(C(=O)c1nccnc1C(=O)O)CC2 (configuration not stated),IC50,Beta-lactamase [16],> 59.6 µM (inactive)
same,IC50,Beta-lactamase [17],> 59.6 µM (inactive)
same,IC50,Beta-lactamase [18],> 59.6 µM (inactive)
COc1ccc(-n2sc3ccccc3c2=O)cc1,EC50,[19],> 91.2 µM (inactive)
same,IC50,Beta Lactamase,27 µM (inactive)
same,IC50,[20],9.6 µM (active)
same,IC50,[3],5.79 µM (active)
same,IC50,Hexokinase,5.35 µM (active)
same,EC50,[21],> 91.2 µM (inactive)
same,IC50,[22],34.5 µM (active)
same,CC50,[23],79.7 µM (active)
